What was measured:
[1] = test system: determinate soybeans; assay: Field applications on determinate soybeans (29 site data base), seed yield; assay type: in vivo, soybean; conditions: for determinate soybean yields: Diflubenzuron 0.035 kg/ha, BENLATE 0.56 to 0.84 kg/ha, applied from R2 through R5 growth stages, untreated control 2190 kg/ha; for yield increase over the untreated control: one or two field applications of Diflubenzuron at 0.034 kg ai/ha, 29 sites, determinate soybeans
Excerpt: In this invention, Diflubenzuron is typically sprayed during the period from R2 through R5 for controlling foliar feeding insects. In the States of Mississippi, Florida, Tennessee, Illinois, Arkansas, Louisiana, and Texas results have been compiled where one or two field applications of Diflubenzuron at 0.034 kg ai/ha (0.031 lb ai/acre) were applied to control insects on the determinate soybeans planted. A fungicide, Benomyl, methyl-1-(butylcarbamoyl)-2-benzamidazolecarbamate [CAS 17804-35-2], available as BENLATE™ from DuPont deNemour, Wilmington, Del., was also applied alone or in combination with Diflubenzuron for fungal pathogen control.

[2] = test system: indeterminate soybeans; assay: Field applications on northern indeterminate soybean varieties (25 sites), seed yield, pod counts, seed size; assay type: in vivo
Excerpt: Diflubenzuron alone gave a 376 kg/ha (5.6 bu/acre) increase over the untreated control; the addition of Benomyl (methyl-1-(butylcarbamoyl)-2-benzamidazolecarbamate) only conferred another 0.5 bushel increase. There were no reported foliar feeding insect infestations of significance in any of the trials.
This is a similar % increase to the increased seed yields found in Table 3. […] Thus Diflubenzuron may be more consistent than TIBA in generating soybean seed yield increases since Diflubenzuron is not visually altering the carbon fixation pool of the plant.

[3] = test system: soybean; conditions: cited from earlier work

SMILES	determinate soybean yields [1]	yield increase over the untreated control [1]	visual alteration of the soybean plant canopy ([2]; any research trial)	seed size variation across varieties ([2]; no correlation to application time of Diflubenzuron)	pod counts from plants, higher in relation to the untreated control ([2]; preliminary results, indeterminate soybean trials)	total seed number per plant ([3]; literature (Bauer et al., 1969; Burton and Curley, 1966; Hicks et al., 1967))	seed yield ([3]; literature, smaller seeds were formed)
O=C(NC(=O)c1c(F)cccc1F)Nc1ccc(Cl)cc1 [Diflubenzuron, N-(2,6-difluorobenzoyl)-N′-(4-chlorophenyl)urea]	2378 kg/ha	2.8 bushels/acre	has not been noted	~2%	approximately 16%	–	–
CCCCNC(=O)n1c(NC(=O)OC)nc2ccccc21 [Benomyl, methyl-1-(butylcarbamoyl)-2-benzamidazolecarbamate]	2439 kg/ha	3.7 bushels/acre	–	–	–	–	–
O=C(O)c1cc(I)cc(I)c1I [TIBA, 2,3,5-triiodobenzoic acid]	–	–	–	–	–	increase	no corresponding increase

Source: US6376430B1, “Enhancement of seed yield of soybeans by a substituted benzoyl urea” (Uniroyal Chemical Company, Inc., priority 1997, dated 2002)
